{"source": "patent US20230390319A1", "about": "“INTERFERON GENE STIMULATOR COMPOSITION COMPRISING INDOLIZINE DERIVATIVE AS ACTIVE INGREDIENT” (AJOU UNIVERSITY INDUSTRY-ACADEMIC COOPERATION FOUNDATION, priority 2020, published 2023)", "key": {"ISRE reporter signal": {"system": "ISRE reporter signal", "experiment": "ISRE luciferase reporter assay, THP-1 cells co-treated with compound and cGAMP", "type": "cell-based, Human", "conditions": "THP-1 cells, 20 μM of each compound, co-treated with cGAMP (1 μg/ml), 24 hours", "procedure": "(§1) Human monocytic THP-1 wild-type (WT) and STING knockout (KO) cell lines were obtained from InvivoGen. Cells were cultured in 1×RPMI 1640 medium containing 10% fetal bovine serum (FBS, Hyclone), 2.05 mM L-glutamine (Hyclone) and 1% penicillin (Corning) in a humidified incubator at 37° C. under 5% CO2.\nTo confirm immune responses, THP-1 cells were placed in 384-well plates (Grenier), and treated with each compound and cGAMP (1 μg/ml), and after 24 hours, ISRE activity was analyzed. QUANTI-Luc assay (InvivoGen) was performed using the cell culture supernatant to confirm the luciferase reporter gene signal. Fluorescent signals were measured using a TECAN micro plate reader SPARK, and the results were normalized to DMSO control.\n(§2) THP-1 cells were co-treated with each of 86 indolizine derivatives and a very small amount of cGAMP (1 μg/ml), the immune response of the THP-1 cells was examined by ISRE reporter assay, and the cytotoxicity of co-treatment was also evaluated (Table 1). All results were compared by normalization to the reporter assay results obtained by treatment with cGAMP alone. […] Thus, Compound 42 was used in subsequent experiments."}, "THP-1 cells": {"system": "THP-1 cells", "experiment": "Cell viability assay (CellTiter Clo) in THP-1 cells", "type": "cell-based, Human", "conditions": "THP-1 cells, 20 μM of each compound, co-treated with cGAMP (1 μg/ml)", "procedure": "as §1\nCells were analyzed using CellTiter Clo (CTG, Promega). […] was measured using a TECAN micro plate reader SPARK. Results were normalized to DMSO control.\nas §2"}}, "data": [{"smiles": "CC(=O)c1ccn2c(C(=O)c3ccc(C(F)(F)F)cc3)cc(-c3ccc(N(C)C)cc3)c2c1", "note": "[Compound 25]", "values": [{"measurement": "Normalized RU (relative unit of ISRE reporter signal)", "setting": "ISRE reporter signal", "value": 1.75}, {"measurement": "Normalized cell viability", "setting": "THP-1 cells", "value": 1.12}]}, {"smiles": "CC(=O)c1ccn2c(C(=O)c3ccccc3)cc(-c3ccc(C(F)(F)F)cc3)c2c1", "note": "[Compound 26]", "values": [{"measurement": "Normalized RU (relative unit of ISRE reporter signal)", "setting": "ISRE reporter signal", "value": 1.60}, {"measurement": "Normalized cell viability", "setting": "THP-1 cells", "value": 1.21}]}, {"smiles": "CC(=O)c1ccc(-c2cc(C(=O)c3ccccc3)n3ccc(C(C)=O)cc23)cc1", "note": "[Compound 27]", "values": [{"measurement": "Normalized RU (relative unit of ISRE reporter signal)", "setting": "ISRE reporter signal", "value": 1.18}, {"measurement": "Normalized cell viability", "setting": "THP-1 cells", "value": 1.17}]}, {"smiles": "CC(=O)c1ccn2c(C(=O)c3ccccc3)cc(-c3ccccc3)c2c1", "note": "[Compound 28]", "values": [{"measurement": "Normalized RU (relative unit of ISRE reporter signal)", "setting": "ISRE reporter signal", "value": 1.69}, {"measurement": "Normalized cell viability", "setting": "THP-1 cells", "value": 1.13}]}, {"smiles": "COc1ccc(-c2cc(C(=O)c3ccccc3)n3ccc(C(C)=O)cc23)cc1", "note": "[Compound 29]", "values": [{"measurement": "Normalized RU (relative unit of ISRE reporter signal)", "setting": "ISRE reporter signal", "value": 1.00}, {"measurement": "Normalized cell viability", "setting": "THP-1 cells", "value": 1.20}]}, {"smiles": "CC(=O)c1ccn2c(C(=O)c3ccccc3)cc(-c3ccc(N(C)C)cc3)c2c1", "note": "[Compound 30]", "values": [{"measurement": "Normalized RU (relative unit of ISRE reporter signal)", "setting": "ISRE reporter signal", "value": 1.33}, {"measurement": "Normalized cell viability", "setting": "THP-1 cells", "value": 1.26}]}, {"smiles": "COc1ccc(C(=O)c2cc(-c3ccc(C(F)(F)F)cc3)c3cc(C(C)=O)ccn23)cc1", "note": "[Compound 31]", "values": [{"measurement": "Normalized RU (relative unit of ISRE reporter signal)", "setting": "ISRE reporter signal", "value": 3.42}, {"measurement": "Normalized cell viability", "setting": "THP-1 cells", "value": 1.33}]}, {"smiles": "COc1ccc(C(=O)c2cc(-c3ccc(C(C)=O)cc3)c3cc(C(C)=O)ccn23)cc1", "note": "[Compound 32]", "values": [{"measurement": "Normalized RU (relative unit of ISRE reporter signal)", "setting": "ISRE reporter signal", "value": 2.91}, {"measurement": "Normalized cell viability", "setting": "THP-1 cells", "value": 1.11}]}, {"smiles": "COc1ccc(C(=O)c2cc(-c3ccccc3)c3cc(C(C)=O)ccn23)cc1", "note": "[Compound 33]", "values": [{"measurement": "Normalized RU (relative unit of ISRE reporter signal)", "setting": "ISRE reporter signal", "value": 2.18}, {"measurement": "Normalized cell viability", "setting": "THP-1 cells", "value": 1.22}]}, {"smiles": "COc1ccc(C(=O)c2cc(-c3ccc(OC)cc3)c3cc(C(C)=O)ccn23)cc1", "note": "[Compound 34]", "values": [{"measurement": "Normalized RU (relative unit of ISRE reporter signal)", "setting": "ISRE reporter signal", "value": 1.52}, {"measurement": "Normalized cell viability", "setting": "THP-1 cells", "value": 1.26}]}, {"smiles": "COc1ccc(C(=O)c2cc(-c3ccc(N(C)C)cc3)c3cc(C(C)=O)ccn23)cc1", "note": "[Compound 35]", "values": [{"measurement": "Normalized RU (relative unit of ISRE reporter signal)", "setting": "ISRE reporter signal", "value": 2.22}, {"measurement": "Normalized cell viability", "setting": "THP-1 cells", "value": 1.26}]}, {"smiles": "CCN(CC)c1ccc(C(=O)c2cc(-c3ccc(C(F)(F)F)cc3)c3cc(C(C)=O)ccn23)cc1", "note": "[Compound 36]", "values": [{"measurement": "Normalized RU (relative unit of ISRE reporter signal)", "setting": "ISRE reporter signal", "value": 3.37}, {"measurement": "Normalized cell viability", "setting": "THP-1 cells", "value": 1.27}]}, {"smiles": "CCN(CC)c1ccc(C(=O)c2cc(-c3ccc(C(C)=O)cc3)c3cc(C(C)=O)ccn23)cc1", "note": "[Compound 37]", "values": [{"measurement": "Normalized RU (relative unit of ISRE reporter signal)", "setting": "ISRE reporter signal", "value": 1.62}, {"measurement": "Normalized cell viability", "setting": "THP-1 cells", "value": 1.25}]}, {"smiles": "CCN(CC)c1ccc(C(=O)c2cc(-c3ccccc3)c3cc(C(C)=O)ccn23)cc1", "note": "[Compound 38]", "values": [{"measurement": "Normalized RU (relative unit of ISRE reporter signal)", "setting": "ISRE reporter signal", "value": 1.77}, {"measurement": "Normalized cell viability", "setting": "THP-1 cells", "value": 1.34}]}, {"smiles": "CCN(CC)c1ccc(C(=O)c2cc(-c3ccc(OC)cc3)c3cc(C(C)=O)ccn23)cc1", "note": "[Compound 39]", "values": [{"measurement": "Normalized RU (relative unit of ISRE reporter signal)", "setting": "ISRE reporter signal", "value": 1.47}, {"measurement": "Normalized cell viability", "setting": "THP-1 cells", "value": 1.18}]}, {"smiles": "CCN(CC)c1ccc(C(=O)c2cc(-c3ccc(N(C)C)cc3)c3cc(C(C)=O)ccn23)cc1", "note": "[Compound 40]", "values": [{"measurement": "Normalized RU (relative unit of ISRE reporter signal)", "setting": "ISRE reporter signal", "value": 1.09}, {"measurement": "Normalized cell viability", "setting": "THP-1 cells", "value": 1.17}]}, {"smiles": "O=C(c1ccc(C(F)(F)F)cc1)c1cc(-c2ccc(C(F)(F)F)cc2)c2ccccn12", "note": "[Compound 41]", "values": [{"measurement": "Normalized RU (relative unit of ISRE reporter signal)", "setting": "ISRE reporter signal", "value": 3.85}, {"measurement": "Normalized cell viability", "setting": "THP-1 cells", "value": 1.25}]}, {"smiles": "O=C(c1ccc(C(F)(F)F)cc1)c1cc(-c2ccccc2)c2ccccn12", "note": "[Compound 43]", "values": [{"measurement": "Normalized RU (relative unit of ISRE reporter signal)", "setting": "ISRE reporter signal", "value": 1.08}, {"measurement": "Normalized cell viability", "setting": "THP-1 cells", "value": 1.13}]}, {"smiles": "COc1ccc(-c2cc(C(=O)c3ccc(C(F)(F)F)cc3)n3ccccc23)cc1", "note": "[Compound 44]", "values": [{"measurement": "Normalized RU (relative unit of ISRE reporter signal)", "setting": "ISRE reporter signal", "value": 0.89}, {"measurement": "Normalized cell viability", "setting": "THP-1 cells", "value": 1.24}]}, {"smiles": "CN(C)c1ccc(-c2cc(C(=O)c3ccc(C(F)(F)F)cc3)n3ccccc23)cc1", "note": "[Compound 45]", "values": [{"measurement": "Normalized RU (relative unit of ISRE reporter signal)", "setting": "ISRE reporter signal", "value": 1.28}, {"measurement": "Normalized cell viability", "setting": "THP-1 cells", "value": 1.22}]}, {"smiles": "O=C(c1ccccc1)c1cc(-c2ccc(C(F)(F)F)cc2)c2ccccn12", "note": "[Compound 46]", "values": [{"measurement": "Normalized RU (relative unit of ISRE reporter signal)", "setting": "ISRE reporter signal", "value": 1.08}, {"measurement": "Normalized cell viability", "setting": "THP-1 cells", "value": 1.25}]}, {"smiles": "CC(=O)c1ccc(-c2cc(C(=O)c3ccccc3)n3ccccc23)cc1", "note": "[Compound 47]", "values": [{"measurement": "Normalized RU (relative unit of ISRE reporter signal)", "setting": "ISRE reporter signal", "value": 1.15}, {"measurement": "Normalized cell viability", "setting": "THP-1 cells", "value": 1.12}]}, {"smiles": "O=C(c1ccccc1)c1cc(-c2ccccc2)c2ccccn12", "note": "[Compound 48]", "values": [{"measurement": "Normalized RU (relative unit of ISRE reporter signal)", "setting": "ISRE reporter signal", "value": 1.37}, {"measurement": "Normalized cell viability", "setting": "THP-1 cells", "value": 1.18}]}, {"smiles": "COc1ccc(-c2cc(C(=O)c3ccccc3)n3ccccc23)cc1", "note": "[Compound 49]", "values": [{"measurement": "Normalized RU (relative unit of ISRE reporter signal)", "setting": "ISRE reporter signal", "value": 1.17}, {"measurement": "Normalized cell viability", "setting": "THP-1 cells", "value": 1.21}]}]}
